Numbers after ± are expanded uncertainties.
Details: 298.15 K; 101.33 kPa; Liquid; Cone and plate viscometry

| viscosity | SMILES |
| --- | --- |
| 31.9 ± 2.4 mPa·s | CCCCn1cc[n+](CCCC)c1.CS(=O)(=O)[O-] [1,3-dibutyl-1H-imidazolium methanesulfonate] |
| 32.9 ± 1.1 mPa·s | CS(=O)(=O)[O-].Cn1cc[n+](C)c1 [1,3-dimethyl-1H-imidazolium methanesulfonate] |
| 111 ± 14 mPa·s | CCCCn1cc[n+](C)c1.CS(=O)(=O)[O-] [1-butyl-3-methylimidazolium methanesulfonate] |
| 70.5 ± 2.7 mPa·s | CCn1cc[n+](C)c1.CS(=O)(=O)[O-] [1-ethyl-3-methylimidazolium methanesulfonate] |
